Measured values: US20240269308A1, “PRODRUGS OF TOPOISOMERASE I INHIBITOR FOR ADC CONJUGATIONS AND METHODS OF USE THEREOF” (priority 2022, published 2024)
Values after ≈ are worked out from the molar mass of the structure shown.

Columns and labels:
SK-BR-3 cells = experiment: SKBR3 cell-based anti-proliferation / viability assay (CellTiter-Glo); set-up: species or system human; conditions: read-out: SKBR3 EC50
Experimental: The anti-Her2 viability assay protocol is following.
0.1% BSA was added to the Opti-MEM reduced serum media [Gibco, cat #31985-070]. This assay media was used for the dilution of ADC and free drug.
Cells were seeded in their growth media into 96 well plates (Thermo #136101) one day prior to adding ADCs: 1000/well SKBR3 cells in 80 uL media (target positive cells), 1000/well NCI-N87 cells in 80 uL media (target positive cells), 1000/well Calu-3 in 80 uL media (target positive cells), and 800/well NCI-H1975 cells in 80ul media (target negative cells).
Serial dilutions of free drug in 100% DMSO (1:4 10 pts starting from 100 uM) were prepared. Serially diluted payload was transferred into Opti-Mem with 0.1% BSA (10 uL into 990 uL media). Serial dilutions of ADCs/isotype controls at 1:4 in Opti-Mem with 0.1% BSA (starting from 5×1000 nM) were prepared. 20ul assay media diluted ADC/isotype conjugates as well as free drug were transferred to above cells. The plates were incubated at 37° C., 5% CO2 for 6 days. Plates were developed by adding 100ul CellTiter Glo 2.0. RT 5-10 min. Plates were read with Envision plate reader. Data was analyzed using Prism. Only inner 60 well are used for the assay. The edge wells were filled with media to prevent dry out.
The cell line used in the anti-proliferation assays was SK-BR-3, a human breast, adenocarcinoma (pleural effusion) cell line; The cells were grown in McCoy's 5a Medium+10% FBS. To run the assay, the cells (80 μl, 1000 cells) were added to each well in a 96-well plate and incubated for 24 hours at 37° C. with CO2. Next, the cells were treated with test compounds (20 μl) at various concentrations in appropriate cell culture medium (total volume, 0.1 mL). The control wells contain cells and the medium but lack the test compounds. The plates were incubated for 144 hours at 37° C. with CO2. CTG reagent was then added to the wells (100 μl). After the plates were shaken for 10 min and then incubated for 10 min at room temperature, paste the clear bottom with white back seal and record luminescence with Envision. The inhibition % was calculated according to the following equation: inhibition %=[1-(assay-blank)/(control-blank)]×100.

HCT-15 = HCT-15 cell killing EC50 (−v / +v); type: cell-based
[1] = Solubility (Certificate of Analysis of LP1, physical and chemical properties); type: physicochemical; conditions: LP1 13g lot, free base
[2] = Mouse whole blood stability test; type: in vitro ADME
Experimental: In vitro stability of Linker-Prodrug in mouse whole blood Scheme 15. Metabolism of LP1 (M2980) in whole blood.
Stock solution of test compound was provided in 100% DMSO. The stock solution for each compound was diluted into 500 μM with mixture of 50% acetonitrile, then diluted into mouse blood to achieve a final concentration of 1.0 μM. 1.0 μM of test compound in duplicate was incubated in blood at 37° C. Aliquots of 50 uL sample was collected at 0, 15, 30, 60, 120, 240, 480 min, and 24 hours. Reactions were terminated at various time points (0, 15, 30, 60, 120, 240, 480 min, 24 hours) by adding 200 μL of ice-cold acetonitrile containing internal standard with 1% formic acid and then ultrasound for 30 seconds. Plate was centrifuged (4000 rpm, 15 min). 50 μL of supernatants were transferred into a daughter plate containing 200 μL of H2O in each well. The samples were mixed well and analyzed with UPLC-MS/MS.
A Waters liquid chromatographic system was used. Detection was performed on AP14000 Q-Trap and AP15500 mass spectrometer equipped with TurbolonSpray (ESI) Interface (Applied Biosystems, Concord, Ontario, Canada). Analyst 1.5 and 1.6.2 software packages (Applied Biosystems) were used to control the LC-MS/MS system, as well as for data acquisition and processing.
Chromatographic separation was achieved on the Wates BEH C18 column (50*2.1 mm ID, 1.7 μm). The column temperature was maintained at ambient temperature (25° C.). The flow rate was maintained at 0.6 mL/min and the following mobile phases were used: water (0.1% formic acid, v/v) (phase A) and acetonitrile (0.1% formic acid, v/v) (phase B).
Test compounds (1.0 μM) were incubated in blood at 37° C. in duplicate. Aliquots of 50 uL sample was collected at 0, 15, 30, 60, 120, 240, 480 min, and 24 hours. Reactions were terminated at various time points (0, 15, 30, 60, 120, 240, 480 min, 24 hours by adding 200 μL of ice-cold acetonitrile containing internal standard with 1% formic acid, then ultrasound for 30 seconds. The plate was centrifuged (4000 rpm, 15 min). 50 μL of supernatants were transferred into a daughter plate containing 200 μL of water in each well. Samples were mixed well and analyzed with UPLC-MS/MS.
The % was calculated based on initial 1 uM as 100% and the standard concentration curve.

[3] = Special liability / stability (Certificate of Analysis of LP1, physical and chemical properties); type: physicochemical; conditions: LP1 13g lot, free base
[4] = M3385 metabolism in human liver S9 with NADPH and UDPGA; type: in vitro ADME; conditions: 240 min
Description: (§1) Briefly, hepatocytes are complete liver cells, containing various first-phase and second-phase enzymes that can mediate various metabolic reactions; therefore, it is a better in vitro model to test metabolites. Liver S9 is the supernatant obtained by grinding and centrifuging the liver cells. The enzymes content is lower compared to Hepatocytes. It mainly contains CYP enzymes and some biphasic enzymes (but no biphasic coenzyme), so additional coenzyme (NADPH and UDPGA, etc.) is needed to mediate the biphasic reaction.
The metabolism of model compound M3385 was evaluated in human liver S9 with NADPH and UDPGA as follows:
(§2) Assay buffer: 100 mM potassium phosphate buffer (K+/Mg2+ buffer, pH7.4):
(§3) The initial stock of liver S9 was diluted in K+/Mg^2+ buffer, pH 7.4 from 20 mg/ml to 2× Liver S9 (2 mg/mL) with alamethicin (50 μg/mL):
(§4) 2×LS9/compound M3385 solution was prepared.
(§5) Time zero/T0: 199 μL 2 mg/mL liver S9 solution; 100 μL of 8 mM NADPH solution; 100 μL of 20 mM UDPGA solution; and 1200 μL of ACN were added, vortexed at 1000 rpm for 5 min, then 1 μL of 4 mM test compound solution was added.
T240 with a co-factor: 199 μL 2 mg/mL liver S9 solution; 100 μL of 8 mM NADPH solution; and 100 μL of 20 mM UDPGA solution were added. The T240 sample was prewarmed at 37° C. for 5 min and 1 μL of 4 mM test compound solution was added. After 240 min incubation, 1200 μL of ACN was added and then vortexed at 1000 rpm for 5 min.
(§6) Protein precipitation: quenched samples were centrifuged at 14000 rpm for 5 min.
(§7) Sample preparation: an aliquot of 1200 μL of the supernatant was evaporated under N2 stream until dry. Dried extracts were reconstituted with 200 μL of 25% aqueous ACN, vortexed for 2 minutes, centrifuged at 14000 rpm for 5 min, and then 3 μL of reconstituted supernatant were injected for LC-UV-MS analysis.

[5] = M3385 metabolism in human liver S9 without cofactors NADPH and UDPGA; type: in vitro ADME; conditions: M3385 incubated in human liver S9 without NADPH and UDPGA, 240 min; single peak (parent or metabolite)
Description: as §1, §2, §3, §4, §5
T240-without a co-factor: 199 μL 2 mg/mL liver S9 solution and 200 μL of buffer were added. The T240-w/o sample was prewarmed at 37° C. for 5 min and 1 μL of 4 mM test compound solution was added. After 240 min incubation, 1200 μL of ACN was added and then vortexed at 1000 rpm for 5 min.
as §6, §7

pGP = pGP (Homo sapiens, UniProt P08183); conditions: not told
Sequence of pGP (P08183 whole entry): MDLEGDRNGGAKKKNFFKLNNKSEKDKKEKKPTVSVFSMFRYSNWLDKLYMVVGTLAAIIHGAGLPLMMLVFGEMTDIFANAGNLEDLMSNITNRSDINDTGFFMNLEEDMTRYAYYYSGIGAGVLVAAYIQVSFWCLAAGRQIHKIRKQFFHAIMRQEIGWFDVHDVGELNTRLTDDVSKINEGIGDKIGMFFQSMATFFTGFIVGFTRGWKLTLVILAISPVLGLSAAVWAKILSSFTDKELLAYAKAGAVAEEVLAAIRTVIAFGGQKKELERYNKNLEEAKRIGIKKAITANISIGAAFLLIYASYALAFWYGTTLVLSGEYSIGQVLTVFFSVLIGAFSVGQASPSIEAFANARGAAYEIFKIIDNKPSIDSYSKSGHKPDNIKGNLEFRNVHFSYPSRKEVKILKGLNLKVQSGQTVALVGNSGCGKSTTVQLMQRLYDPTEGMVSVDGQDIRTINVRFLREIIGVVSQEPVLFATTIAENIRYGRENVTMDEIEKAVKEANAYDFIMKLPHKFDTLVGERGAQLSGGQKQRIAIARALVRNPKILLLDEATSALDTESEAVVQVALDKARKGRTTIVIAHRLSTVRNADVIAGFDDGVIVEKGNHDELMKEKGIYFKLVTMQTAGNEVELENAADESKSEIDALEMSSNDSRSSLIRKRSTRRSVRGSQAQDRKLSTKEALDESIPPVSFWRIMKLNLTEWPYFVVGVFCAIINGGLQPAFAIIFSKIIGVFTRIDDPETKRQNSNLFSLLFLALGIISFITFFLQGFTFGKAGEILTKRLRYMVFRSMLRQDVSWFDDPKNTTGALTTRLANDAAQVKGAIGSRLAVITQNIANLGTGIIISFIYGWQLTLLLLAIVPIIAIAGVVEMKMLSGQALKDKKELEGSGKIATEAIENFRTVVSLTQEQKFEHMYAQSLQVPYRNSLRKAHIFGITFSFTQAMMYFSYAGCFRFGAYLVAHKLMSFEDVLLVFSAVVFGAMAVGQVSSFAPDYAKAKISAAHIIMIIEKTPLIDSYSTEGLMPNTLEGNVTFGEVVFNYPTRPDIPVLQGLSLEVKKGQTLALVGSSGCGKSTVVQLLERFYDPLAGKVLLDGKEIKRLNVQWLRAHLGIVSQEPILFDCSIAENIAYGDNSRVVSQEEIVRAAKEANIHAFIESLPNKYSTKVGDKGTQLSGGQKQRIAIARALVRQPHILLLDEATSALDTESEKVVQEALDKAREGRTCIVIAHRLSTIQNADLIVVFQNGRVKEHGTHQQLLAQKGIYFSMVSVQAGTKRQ

BCRP = biological target: T1, BCRP (Homo sapiens, UniProt Q9UNQ0); conditions: not told
T1 sequence (Q9UNQ0 1-655): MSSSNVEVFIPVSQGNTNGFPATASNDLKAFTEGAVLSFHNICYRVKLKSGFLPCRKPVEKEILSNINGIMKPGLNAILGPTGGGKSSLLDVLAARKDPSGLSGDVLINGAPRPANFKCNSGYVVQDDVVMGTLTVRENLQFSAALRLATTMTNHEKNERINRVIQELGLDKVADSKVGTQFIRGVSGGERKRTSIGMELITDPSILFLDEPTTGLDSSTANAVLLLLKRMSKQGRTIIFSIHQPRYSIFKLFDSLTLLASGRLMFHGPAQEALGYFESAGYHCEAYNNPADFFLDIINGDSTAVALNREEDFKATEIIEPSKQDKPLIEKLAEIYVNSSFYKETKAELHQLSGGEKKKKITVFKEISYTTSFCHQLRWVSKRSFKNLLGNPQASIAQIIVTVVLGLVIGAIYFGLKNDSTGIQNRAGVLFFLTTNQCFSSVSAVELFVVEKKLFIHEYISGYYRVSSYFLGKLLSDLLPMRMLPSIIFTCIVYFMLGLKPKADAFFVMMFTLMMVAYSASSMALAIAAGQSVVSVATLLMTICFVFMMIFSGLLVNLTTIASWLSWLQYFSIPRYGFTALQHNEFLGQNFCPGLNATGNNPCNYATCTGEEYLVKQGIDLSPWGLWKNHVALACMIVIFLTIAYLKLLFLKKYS

## CC[C@@]1(O)C(=O)OCc2c1cc1n(c2=O)Cc2c-1nc1cc(F)c(C)c3c1c2[C@@H](N)CC3 [EXT, reference compound]
SK-BR-3 cells
  EC50: 0.52 nM
HCT-15; +v
  EC50: 1.13 nM
HCT-15; −v
  EC50: 1.22 nM

## CC[C@@]1(O)C(=O)OCc2c1cc1n(c2=O)Cc2c-1nc1cc(F)c(C)c3c1c2[C@@H](NC(=O)COCNC(=O)CNC(=O)OCc1ccc(NC(=O)[C@H](CCCNC(N)=O)NC(=O)[C@@H](NC(=O)CCOCCOCCOCCOCCNC(=O)COC2C#CCCCCC2)C(C)C)cc1)CC3 (stereo partly drawn) [LP1, {4-[(2S)-5-(carbamoylamino)-2-[(2S)-2-{1-[2-(cyclooct-2-yn-1-yloxy)acetamido]-3,6,9,12-tetraoxapentadecan-15-amido}-3-methylbutanamido]pentanamido]phenyl}methyl N-({[({[(10S,23S)-10-ethyl-18-fluoro-10-hydroxy-19-methyl-5,9-dioxo-8-oxa-4,15-diazahexacyclo[14.7.1.0^2,14.0^4,13.0^6,11.0^20,24]tetracosa-1,6(11),12,14,16,18,20(24)-heptaen-23-yl]carbamoyl}methoxy)methyl]carbamoyl}methyl)carbamate]
[1]; in water
  solubility: 0.026 mM (≈ 36.3 µg/mL)
[1]; organic solvent or mixture, in DMSO
  solubility: 10 mM (≈ 14000 µg/mL)
[2]; mouse blood, 37° C., 1.0 μM, 0 hr
  % of test compound in whole blood (initial 1 uM as 100%): 100.0%
[2]; mouse blood, 37° C., 1.0 μM, 0.25 hr
  % of test compound in whole blood (initial 1 uM as 100%): 88.8%
[2]; mouse blood, 37° C., 1.0 μM, 0.5 hr
  % of test compound in whole blood (initial 1 uM as 100%): 82.6%
[2]; mouse blood, 37° C., 1.0 μM, 1 hr
  % of test compound in whole blood (initial 1 uM as 100%): 72.3%
[2]; mouse blood, 37° C., 1.0 μM, 2 hr
  % of test compound in whole blood (initial 1 uM as 100%): 52.8%
[2]; mouse blood, 37° C., 1.0 μM, 4 hr
  % of test compound in whole blood (initial 1 uM as 100%): 30.5%
[2]; mouse blood, 37° C., 1.0 μM, 8 hr
  % of test compound in whole blood (initial 1 uM as 100%): 16.5%
[2]; mouse blood, 37° C., 1.0 μM, 24 hr
  % of test compound in whole blood (initial 1 uM as 100%): 0.0%
[2]; mouse whole blood, 37° C.
  Metabolism in whole blood: metabolized to ProDXD, and then to DXd
[3]
  Special liability (light): Light sensitive
  Special liability (pH stability): unstable at pH <3 or pH >11

## CC[C@@](O)(C(=O)O)c1cc2n(c(=O)c1CO)Cc1c-2nc2cc(F)c(C)c3c2c1[C@@H](NC(=O)CO)CC3 [MP2R]
[4]; M3385 incubated in human liver S9 with NADPH and UDPGA, single peak (parent or metabolite)
  Relative UV Abundance* (%): 0.14%
[5]
  Relative UV Abundance* (%): 0.18%

## CC[C@@]1(O)C(=O)OCc2c1cc1n(c2=O)Cc2c-1nc1cc(F)c(C)c3c1c2[C@@H](NC(=O)COCNC(=O)CN)CC3 [ProDXd]
[4]; human, 10 μM, pH 7.4
  Relative UV Abundance* (%), group total: 3.94%
[2]; mouse, 0 hr, 1 μM
  % of test compound in whole blood (initial 1 uM as 100%): 100.0%
[2]; mouse, 0.25 hr, 1 μM
  % of test compound in whole blood (initial 1 uM as 100%): 63.9%
[2]; mouse, 0.5 hr, 1 μM
  % of test compound in whole blood (initial 1 uM as 100%): 39.0%
[2]; mouse, 1 hr, 1 μM
  % of test compound in whole blood (initial 1 uM as 100%): 30.7%
[2]; mouse, 2 hr, 1 μM
  % of test compound in whole blood (initial 1 uM as 100%): 14.8%
[2]; mouse, 4 hr, 1 μM
  % of test compound in whole blood (initial 1 uM as 100%): 2.7%
[2]; mouse, 8 hr, 1 μM
  % of test compound in whole blood (initial 1 uM as 100%): 0.3%
[2]; mouse, 24 hr, 1 μM
  % of test compound in whole blood (initial 1 uM as 100%): 0.0%
pGP
  pGP efflux rate: Lower
BCRP
  BCRP efflux rate: Lower
